Experimental data published in patent US8187821B2, “Compositions and methods for the modulation of PGRMC1” (University of Utah Research Foundation, priority 2008, dated 2012).
pKd: −log10 of the molar value. Read-outs that look alike come from different tables or passages of the source.

What was measured:
His10-PGRMC1 [1] = biological target: T1, His10-PGRMC1 (Homo sapiens, UniProt O00264); assay: Competition of cold competitors with [^3H] progesterone or [^3H] cholesterol for His10-PGRMC1 binding; settings: for effect of cold competitor on binding of [^3H] cholesterol: competitor at ten-fold higher concentration; for effect of cold competitor on specific binding of [^3H] progesterone: excess cold competitor (10 or 100-fold), FIG. 9
T1 construct: a product containing the full length coding region of PGMRC1 flanked by Nde1 and BamHI restriction sites; made in house; host or cells: E. coli BL21 (DE3) / BL21 codon plus (RIPL); purified bacterial membranes
Method: (§1) The standard 10 μL binding reaction contained 10 μp purified membranes (total protein) and 10 μM [^3H] progesterone or [^3H] cholesterol (3,000-5,000 cpm) in buffer A: 20% ethanol. Stock solutions (100 μM) of [^3H] cholesterol and [^3H] progesterone containing ˜4×10^4 cpm/μL, were prepared in 95% ethanol. Reactions were prepared in clear 2.0 mL microcentrifuge tubes on ice. To start the reaction, the microfuge tube was briefly mixed (vortex) and placed at 37° C. Following a 10 to 30 min incubation, the tubes were centrifuged in a microfuge (˜13,000 rpm) for 2 min. The supernatant was carefully removed and the pellet was washed with an additional 10 μL water. After a second round of centrifugation (2 min; 13,000 rpm), the resulting supernatant was combined with the first and the pellet was resuspended in 20 μL H2O, Scintillation fluid (700 μL Wallac Optiflour) was added to each fraction and the fractions were mixed extensively. The fractions were then counted in a multi-well scintillation counter (Wallac Microbeta Triluxmax, Waltham, Mass.) for 30 seconds each. Binding are reported as μ/moles of ligand bound per mg of membrane protein. His10-PGRMC1 (His10 disclosed as SEQ ID NO: 14)-specific binding is reported as the difference in binding between transformed and untransformed bacteria. Experimental deviations from the standard assay conditions are noted in individual figure legends.
To test whether progesterone and cholesterol compete for the same specific binding site, the direct binding of [^3H] progesterone or [^3H] cholesterol to His10-PGRMC1 (His10 disclosed as SEQ ID NO: 14) in the presence of various cold competitors was examined. In these experiments, the standard amount of [^3H] ligand was combined with a cold competitor at either 10 or 100-fold higher concentration and mixed well to ensure homogeneity. These stock ligand solutions were then used in the standard binding assay as described.
The ability of other putative ligands reported in the literature to compete with progesterone binding was examined. […] As a control, cold progesterone (P) was used as a competitor and it was observed that excess cold progesterone competes with [^3H] progesterone for His10-PGRMC1 (His10 disclosed as SEQ ID NO: 14) binding. Contrastingly, binding of [^3H] cholesterol to His10-PGRMC1 (His10 disclosed as SEQ ID NO: 14) was unaffected by the presence of progesterone, ergosterol, or heme at ten-fold higher concentrations (FIG. 9, cholesterol). It was not until competitor concentrations were 100-fold higher than ligand that a reduction of cholesterol binding was observed.

His10-PGRMC1 [2] = biological target: T1, His10-PGRMC1; assay: PGRMC1 binding assay: [^3H] ligand binding to purified bacterial membranes expressing His10-PGRMC1 (+PGRMC1); settings: for Membrane-Associated [^3H] Ligand / pKd / Q1 / Q2: +PGRMC1 membranes; for Membrane-Associated [^3H] Ligand, Specific: Specific (+PGRMC1 minus −PGRMC1); for saturability of specific binding: ligand concentration spanning four orders of magnitude, FIG. 8; for His10-PGRMC1 specific binding with proteolyzed membranes: membranes trypsin-treated prior to ligand binding; for ligand bound at saturation/equilibrium in time course: 37° C; for ligand bound at saturation/equilibrium in time course / time to reach saturation/equilibrium of binding: FIG. 5, time course; for Q1: number of non-specific sites; for Q2: number of specific sites
Method: For bacterial expression, BL21 (DE3) cells (Stratagene, LaJolla, Calif.) were transformed with pET-16b:PGRMC1 and plated on LB agar plates containing ampicillin (amp). One to 7 days later, individual colonies were harvested and used to inoculate small volume (5-200 mL) liquid cultures of LB-amp media. Cultures were grown with shaking at 37° C. until early log phase (OD600=0.6). IPTG was added to a final concentration of […] and the cultures were incubated for another 4 hours at 37° C. or overnight at room temperature. His10-PGRMC1 (His10 disclosed as SEQ ID NO: 14) expression was confirmed by SDS-PAGE followed by Coomassie stain and western blot using mouse monoclonal anti-tetra-His (SEQ ID NO: 15) antibody (Qiagen, Valencia, Calif.).
IPTG-induced cells were harvested by centrifugation (5,000 rpm; 5 min) and washed with ice-cold H2O. The pellet was resuspended in 5 mL buffer A (50 mM Tris-HCl pH 7.5, 150 mM NaCl, 0.1% NP40, and 10% glycerol) with 5-10 mg lysozyme, and incubated on ice for 30 min. The cells were then disrupted by three bursts of sonication (45 sec) at high intensity with a 45 sec cooling period between bursts. Soluble material was removed by centrifugation (15,000 rpm, 10 min) and the pellet resuspended in 5 mL buffer A. His10-PGRMC1 (His10 disclosed as SEQ ID NO: 14) was confirmed to be present in purified membranes by SDS-PAGE followed by Coomassie stain and western blot using anti-tetra-His (SEQ ID NO: 15) antibody (Qiagen). Total protein in the His10-PGRMC1 (His10 disclosed as SEQ ID NO: 14) transformed and untransformed purified membranes was determined by the Bradford method and membranes were normalized to 10 μg/μL total protein (diluted with buffer A). Purified membranes were then aliquoted and stored frozen until use.
as §1
In order to better understand PGRMC1's biological function and to study ligand binding, an in vitro binding assay was developed. E. coli BL21 codon plus (RIPL) cells were transformed with a vector encoding PGRMC1 that was epitope tagged with 10 histidine (SEQ ID NO: 14) residues at the NH2-terminus. Untransformed BL21 cells were used as the control. A purification procedure was performed to remove soluble proteins and cell components from the transformed (+PGRMC1) and untransformed (−PGRMC1) bacterial membranes. The resulting purified membranes were confirmed for the presence and absence of His10-PGRMC1 (His10 disclosed as SEQ ID NO: 14) respectively by Coomassie stain and western blot using anti-His antibody. The membranes with [^3H] progesterone or [^3H] cholesterol were then incubated. […]

[3] = Protease + (trypsin before ligand binding)
[4] = two binding site model fit of saturation data, non-specific site, read-out: Kd1
[5] = two binding site model, specific site, read-out: Kd2

T1 sequence (O00264 whole entry): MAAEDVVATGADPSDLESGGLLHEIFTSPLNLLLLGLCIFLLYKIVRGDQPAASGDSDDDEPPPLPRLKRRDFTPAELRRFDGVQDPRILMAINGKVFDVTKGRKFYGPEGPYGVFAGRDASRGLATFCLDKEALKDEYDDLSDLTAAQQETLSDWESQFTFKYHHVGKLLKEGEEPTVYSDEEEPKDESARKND

Row | SMILES | competitor excess over ligand at which a reduction of [^3H] cholesterol binding was observed (His10-PGRMC1 [1]) [fold] | effect of cold competitor on binding of [^3H] cholesterol (His10-PGRMC1 [1]) | effect of cold competitor on specific binding of [^3H] progesterone (His10-PGRMC1 [1]) | Membrane-Associated [^3H] Ligand (His10-PGRMC1 [2]; [3]) [nmoles/mg protein] | Membrane-Associated [^3H] Ligand (His10-PGRMC1 [2]; Protease −) [nmoles/mg protein] | Membrane-Associated [^3H] Ligand, Specific (His10-PGRMC1 [2]; Protease +) [nmoles/mg protein] | Membrane-Associated [^3H] Ligand, Specific (His10-PGRMC1 [2]; Protease −) [nmoles/mg protein] | cholesterol binding relative to progesterone binding (His10-PGRMC1 [2]; higher at every time point of the time course) | saturability of specific binding (His10-PGRMC1 [2]) | His10-PGRMC1 specific binding with proteolyzed membranes (His10-PGRMC1 [2]) | Kd of cholesterol relative to progesterone (fold lower) (His10-PGRMC1 [2]; specific site, two binding site model) [fold] | ligand bound at saturation/equilibrium in time course (His10-PGRMC1 [2]) | time to reach saturation/equilibrium of binding (His10-PGRMC1 [2]) | pKd (His10-PGRMC1 [2]; [4]) | Q1 (His10-PGRMC1 [2]; two binding site model) | pKd (His10-PGRMC1 [2]; [5]) | ligand concentration at half-maximal specific binding (His10-PGRMC1 [2]; saturation experiment, FIG. 8A) | Q2 (His10-PGRMC1 [2]; two binding site model) | Q2 (His10-PGRMC1 [2]; two binding site model, listed as progesterone)
1 | CC(C)CCC[C@@H](C)[C@H]1CC[C@H]2[C@@H]3CC=C4C[C@@H](O)CC[C@]4(C)[C@H]3CC[C@]12C [Cholesterol, cholesterol] | 100 | did not begin to reduce | greatly reduced | 2.6 ± 0.2 | 5.2 ± 0.3 | 0.0 ± 0.2 | 1.5 ± 0.2 | 2-3 fold | did not appear to be saturable | complete loss | 15 | ~2 nmoles/mg protein | approximately the same rate as progesterone | 3.00 | 9.6 × 10^9 Sites | 9.46 |  |  | 
2 | CC(=O)[C@H]1CC[C@H]2[C@@H]3CCC4=CC(=O)CC[C@]4(C)[C@H]3CC[C@]12C [Progesterone, progesterone] |  | unaffected | competes | 1.6 ± 0.3 | 3.1 ± 0.3 | 0.0 ± 0.1 | 0.7 ± 0.2 |  | appeared to be saturable | complete loss |  | approximately 0.5 nmoles/mg protein | 15 to 30 min | 3.00 | 8.0 × 10^9 Sites | 8.26 | approximately 50 μM | 19,260 Sites | approximately 20,000 Sites
